± gives the uncertainty stated by the source.
Assay: xn = mol fraction of the nth substance listed

CCOCC + CO
101 kPa
Settings	viscosity [mPa·s]
298.15 K, x1 = 0.115	0.4734 ± 0.0049
298.15 K, x1 = 0.1893	0.4296 ± 0.0044
298.15 K, x1 = 0.2803	0.3846 ± 0.0039
298.15 K, x1 = 0.3957	0.3378 ± 0.0034
298.15 K, x1 = 0.5399	0.2953 ± 0.003
298.15 K, x1 = 0.7319	0.2553 ± 0.0026
303.16 K, x1 = 0.04	0.4893 ± 0.071
303.16 K, x1 = 0.09	0.4472 ± 0.066
303.16 K, x1 = 0.13	0.4312 ± 0.064
303.16 K, x1 = 0.2	0.3881 ± 0.06
303.16 K, x1 = 0.27	0.3392 ± 0.054
303.16 K, x1 = 0.37	0.2921 ± 0.049
303.16 K, x1 = 0.51	0.2772 ± 0.047
303.16 K, x1 = 0.67	0.2511 ± 0.044
303.16 K, x1 = 0.85	0.2328 ± 0.042

CC(C)CC(C)(C)C + COC(=O)OC
viscosity [mPa·s], 101 kPa
Settings	x2 = 0.1235	x2 = 0.2408	x2 = 0.3521	x2 = 0.4583	x2 = 0.5592	x2 = 0.6554	x2 = 0.7475	x2 = 0.8352	x2 = 0.9193
293.15 K	0.4747 ± 0.0048	0.4613 ± 0.0046	0.4659 ± 0.0045	0.4672 ± 0.0045	0.4798 ± 0.0045	0.4974 ± 0.0045	0.5114 ± 0.0045	0.5331 ± 0.0045	0.5636 ± 0.0046
298.15 K	0.4464 ± 0.0046	0.4356 ± 0.0045	0.44 ± 0.0044	0.4397 ± 0.0044	0.4483 ± 0.0043	0.4637 ± 0.0043	0.4815 ± 0.0044	0.5015 ± 0.0044	0.5303 ± 0.0045
303.15 K	0.4224 ± 0.0045	0.4116 ± 0.0044	0.4159 ± 0.0043	0.4143 ± 0.0043	0.4231 ± 0.0042	0.4353 ± 0.0042	0.4517 ± 0.0043	0.4719 ± 0.0043	0.5004 ± 0.0044
313.15 K	0.3788 ± 0.0043	0.3706 ± 0.0042	0.373 ± 0.0041	0.3699 ± 0.0041	0.3779 ± 0.0041	0.3929 ± 0.0041	0.4049 ± 0.0041	0.4201 ± 0.0041	0.4475 ± 0.0042
323.15 K	0.3424 ± 0.0041	0.3338 ± 0.004	0.3339 ± 0.004	0.3344 ± 0.0039	0.3399 ± 0.0039	0.3487 ± 0.0039	0.3616 ± 0.0039	0.376 ± 0.004	0.3958 ± 0.004

C=C(C)[C@@H]1CC=C(C)CC1 + COC(C)(C)C
298.15 K, 101.33 kPa
Settings	viscosity [mPa·s]
x2 = 0.0694	0.807 ± 0.007
x2 = 0.1591	0.755 ± 0.007
x2 = 0.257	0.7 ± 0.006
x2 = 0.3599	0.641 ± 0.006
x2 = 0.491	0.572 ± 0.006
x2 = 0.6599	0.486 ± 0.005
x2 = 0.7344	0.449 ± 0.005
x2 = 0.8017	0.418 ± 0.005
x2 = 0.8714	0.386 ± 0.005
x2 = 0.9373	0.356 ± 0.005
x2 = 0.9672	0.344 ± 0.005

CCC(C)N (stereo not given) + COCCO
308.15 K, 101 kPa
Settings	viscosity [mPa·s]
x2 = 0.1256	0.5105 ± 0.0069
x2 = 0.2443	0.6223 ± 0.0082
x2 = 0.3566	0.7355 ± 0.0096
x2 = 0.463	0.8498 ± 0.011
x2 = 0.564	0.9507 ± 0.012
x2 = 0.6599	1.015 ± 0.013
x2 = 0.7511	1.066 ± 0.014
x2 = 0.838	1.121 ± 0.014
x2 = 0.9209	1.175 ± 0.015

CCOCC + COCCO
298.15 K, 101 kPa
Settings	viscosity [mPa·s]
x2 = 0.0976	0.2661 ± 0.009
x2 = 0.1958	0.307 ± 0.0099
x2 = 0.2944	0.363 ± 0.011
x2 = 0.3936	0.4399 ± 0.013
x2 = 0.4933	0.5713 ± 0.016
x2 = 0.5936	0.6782 ± 0.018
x2 = 0.6944	0.8546 ± 0.022
x2 = 0.7957	1.065 ± 0.027
x2 = 0.8976	1.33 ± 0.032

O=C1CCCCC1 + COCCO
298.15 K, 101 kPa
Settings	viscosity [mPa·s]
x1 = 0.0793	1.432 ± 0.035
x1 = 0.1624	1.369 ± 0.032
x1 = 0.2494	1.33 ± 0.029
x1 = 0.3408	1.325 ± 0.026
x1 = 0.4367	1.33 ± 0.024
x1 = 0.5377	1.354 ± 0.022
x1 = 0.644	1.402 ± 0.02
x1 = 0.7562	1.504 ± 0.019
x1 = 0.8746	1.665 ± 0.018

CCCCCCCCCCCCCC[P+](CCCCCC)(CCCCCC)CCCCCC.c1nnc[n-]1 + COCCOCCOCCOCCOC
viscosity [mPa·s], 100 kPa
Settings	x1 = 0.418	x1 = 0.516	x1 = 0.61	x1 = 0.694	x1 = 0.751	x1 = 0.804	x1 = 0.874	x1 = 0.954
293.15 K	66 ± 1	111 ± 2	167 ± 5	272 ± 10	360 ± 15	508 ± 25	679 ± 37	994 ± 62
298.15 K	53 ± 1	88 ± 1	128 ± 3	208 ± 7	269 ± 10	374 ± 16	491 ± 24	706 ± 39
303.15 K	–	70 ± 1	101 ± 2	162 ± 4	205 ± 6	281 ± 10	364 ± 15	512 ± 25
308.15 K	–	57 ± 1	81 ± 1	129 ± 3	160 ± 4	217 ± 7	275 ± 10	382 ± 16
313.15 K	–	–	66 ± 1	104 ± 2	126 ± 3	169 ± 5	212 ± 7	289 ± 11
318.15 K	–	–	54 ± 1	86 ± 1	102 ± 2	135 ± 3	166 ± 4	223 ± 7
323.15 K	–	–	–	71 ± 1	83 ± 1	109 ± 2	133 ± 3	176 ± 5

O=C1CCCCC1 + COc1ccccc1
viscosity [mPa·s], 101.33 kPa
Settings	x1 = 0.1002	x1 = 0.2031	x1 = 0.303	x1 = 0.402	x1 = 0.5032	x1 = 0.6017	x1 = 0.7	x1 = 0.7976	x1 = 0.8978
298.15 K	1.048 ± 0.009	1.096 ± 0.009	1.131 ± 0.009	1.194 ± 0.009	1.245 ± 0.009	1.331 ± 0.009	1.44 ± 0.009	1.558 ± 0.01	1.732 ± 0.011
303.15 K	0.968 ± 0.008	1.004 ± 0.008	1.044 ± 0.008	1.092 ± 0.008	1.151 ± 0.008	1.22 ± 0.008	1.304 ± 0.009	1.421 ± 0.009	1.578 ± 0.01
308.15 K	0.905 ± 0.008	0.93 ± 0.007	0.966 ± 0.007	1.012 ± 0.008	1.06 ± 0.008	1.127 ± 0.008	1.207 ± 0.008	1.306 ± 0.008	1.444 ± 0.009

CC(=O)CC(C)C + CS(C)=O
303.15 K, 101 kPa
Settings	viscosity [mPa·s]
x2 = 0.1332	0.6376 ± 0.19
x2 = 0.257	0.7283 ± 0.2
x2 = 0.3722	0.8149 ± 0.21
x2 = 0.4798	0.9229 ± 0.22
x2 = 0.5804	1.042 ± 0.23
x2 = 0.6748	1.16 ± 0.24
x2 = 0.7635	1.306 ± 0.26

O=C(OCc1ccccc1)c1ccccc1O + CS(C)=O
303.15 K, 101 kPa
Settings	viscosity [mPa·s]
x1 = 0.079	2.299 ± 0.026
x1 = 0.1284	2.529 ± 0.029
x1 = 0.1867	2.933 ± 0.034
x1 = 0.2564	3.273 ± 0.037
x1 = 0.3413	3.776 ± 0.043
x1 = 0.4467	4.342 ± 0.05
x1 = 0.5812	4.995 ± 0.057

O=C1CCCCC1 + CS(C)=O
303.15 K, 101 kPa
Settings	viscosity [mPa·s]
x2 = 0.099	1.721 ± 0.019
x2 = 0.1791	1.669 ± 0.017
x2 = 0.2687	1.649 ± 0.016
x2 = 0.3683	1.648 ± 0.015
x2 = 0.4653	1.657 ± 0.015
x2 = 0.5628	1.675 ± 0.014
x2 = 0.6679	1.698 ± 0.013
x2 = 0.7877	1.725 ± 0.012
x2 = 0.8903	1.755 ± 0.012

CC(=O)CC(C)C + Cc1ccc(C)cc1
298.15 K, 101 kPa
Settings	viscosity [mPa·s]
x1 = 0.1409	0.59 ± 0.006
x1 = 0.226	0.583 ± 0.006
x1 = 0.3369	0.576 ± 0.006
x1 = 0.4463	0.569 ± 0.006
x1 = 0.5673	0.563 ± 0.006
x1 = 0.6366	0.559 ± 0.006
x1 = 0.8014	0.551 ± 0.006
x1 = 0.9061	0.546 ± 0.006

O=C1CCCCC1 + Cc1ccc(C)cc1
viscosity [mPa·s], 101.33 kPa
Settings	x1 = 0.1013	x1 = 0.2048	x1 = 0.3016	x1 = 0.4023	x1 = 0.5186	x1 = 0.6081	x1 = 0.7034	x1 = 0.7967	x1 = 0.9005
298.15 K	0.655 ± 0.005	0.702 ± 0.005	0.762 ± 0.005	0.834 ± 0.006	0.938 ± 0.006	1.04 ± 0.007	1.194 ± 0.008	1.35 ± 0.008	1.617 ± 0.01
303.15 K	0.612 ± 0.004	0.657 ± 0.005	0.711 ± 0.005	0.777 ± 0.005	0.871 ± 0.006	0.965 ± 0.006	1.088 ± 0.007	1.237 ± 0.008	1.481 ± 0.009
308.15 K	0.574 ± 0.004	0.618 ± 0.004	0.667 ± 0.005	0.728 ± 0.005	0.819 ± 0.005	0.897 ± 0.006	1.01 ± 0.007	1.144 ± 0.007	1.354 ± 0.008

— the CheMixHub viscosity set
